From patent US11767310B2, “Nicotinamide RIPK1 inhibitors” (AbbVie Inc., priority 2021, dated 2023)
Read-outs that look alike come from different tables or passages of the source.

Key:
Assay in all cases: Kinase binding screen
AXL = AXL (Homo sapiens (Human), UniProt P30530); conditions: read-out: Percent Control at 100 nM Compound Concentration
PAK4 = PAK4 (Homo sapiens (Human), UniProt O96013); conditions: read-out: Percent Control at 100 nM Compound Concentration
MAP4K4 = MAP4K4 (Homo sapiens (Human), UniProt O95819); conditions: read-out: Percent Control at 100 nM Compound Concentration
FLT3(D835V) = FLT3(D835V) (Homo sapiens (Human), UniProt P36888, D835V); conditions: read-out: Percent Control at 100 nM Compound Concentration
EGFR(L747-T751del,Sins) = EGFR(L747-T751del,Sins) (Homo sapiens (Human), UniProt P00533, DEL747-751/INS746S); conditions: read-out: Percent Control at 100 nM Compound Concentration
EGFR(L747-T751del,Sins), sequence (P00533 other isoform, or with tags, fused parts or gaps del 1-668/ins S behind 746/del 747-751/del 1012-1210 limits assumed): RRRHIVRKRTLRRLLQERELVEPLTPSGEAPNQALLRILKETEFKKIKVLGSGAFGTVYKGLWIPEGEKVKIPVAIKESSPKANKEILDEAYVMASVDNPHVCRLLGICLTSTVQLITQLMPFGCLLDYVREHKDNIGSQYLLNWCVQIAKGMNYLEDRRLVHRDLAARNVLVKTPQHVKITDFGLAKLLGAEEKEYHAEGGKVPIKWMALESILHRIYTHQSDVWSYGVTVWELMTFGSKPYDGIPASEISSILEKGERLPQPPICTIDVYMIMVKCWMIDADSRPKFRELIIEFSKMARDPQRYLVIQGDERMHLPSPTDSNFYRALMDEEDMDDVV

CAMK1B = CAMK1B (Homo sapiens (Human), UniProt Q6P2M8); conditions: read-out: Percent Control at 100 nM Compound Concentration
PIK3CA(C420R) = PIK3CA(C420R) (Homo sapiens (Human), UniProt P42336, C420R); conditions: read-out: Percent Control at 100 nM Compound Concentration
SIK = SIK (Homo sapiens (Human), UniProt P57059); conditions: read-out: Percent Control at 100 nM Compound Concentration
MEK1 = MEK1 (Homo sapiens (Human), UniProt Q02750); conditions: read-out: Percent Control at 100 nM Compound Concentration
MEK1, sequence (Q02750 whole entry): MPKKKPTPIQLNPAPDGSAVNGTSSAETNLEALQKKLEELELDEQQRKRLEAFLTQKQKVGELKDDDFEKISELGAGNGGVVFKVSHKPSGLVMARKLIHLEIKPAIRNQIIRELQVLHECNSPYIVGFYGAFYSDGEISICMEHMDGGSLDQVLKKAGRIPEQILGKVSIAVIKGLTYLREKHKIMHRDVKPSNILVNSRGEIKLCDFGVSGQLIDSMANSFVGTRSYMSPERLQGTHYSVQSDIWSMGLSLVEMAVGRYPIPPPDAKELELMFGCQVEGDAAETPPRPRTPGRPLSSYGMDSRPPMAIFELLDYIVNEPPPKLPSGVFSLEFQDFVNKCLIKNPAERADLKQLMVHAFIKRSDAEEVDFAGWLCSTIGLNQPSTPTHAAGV

BUB1 = BUB1 (Homo sapiens (Human), UniProt O43683); conditions: read-out: Percent Control at 100 nM Compound Concentration
BUB1, sequence (O43683 whole entry): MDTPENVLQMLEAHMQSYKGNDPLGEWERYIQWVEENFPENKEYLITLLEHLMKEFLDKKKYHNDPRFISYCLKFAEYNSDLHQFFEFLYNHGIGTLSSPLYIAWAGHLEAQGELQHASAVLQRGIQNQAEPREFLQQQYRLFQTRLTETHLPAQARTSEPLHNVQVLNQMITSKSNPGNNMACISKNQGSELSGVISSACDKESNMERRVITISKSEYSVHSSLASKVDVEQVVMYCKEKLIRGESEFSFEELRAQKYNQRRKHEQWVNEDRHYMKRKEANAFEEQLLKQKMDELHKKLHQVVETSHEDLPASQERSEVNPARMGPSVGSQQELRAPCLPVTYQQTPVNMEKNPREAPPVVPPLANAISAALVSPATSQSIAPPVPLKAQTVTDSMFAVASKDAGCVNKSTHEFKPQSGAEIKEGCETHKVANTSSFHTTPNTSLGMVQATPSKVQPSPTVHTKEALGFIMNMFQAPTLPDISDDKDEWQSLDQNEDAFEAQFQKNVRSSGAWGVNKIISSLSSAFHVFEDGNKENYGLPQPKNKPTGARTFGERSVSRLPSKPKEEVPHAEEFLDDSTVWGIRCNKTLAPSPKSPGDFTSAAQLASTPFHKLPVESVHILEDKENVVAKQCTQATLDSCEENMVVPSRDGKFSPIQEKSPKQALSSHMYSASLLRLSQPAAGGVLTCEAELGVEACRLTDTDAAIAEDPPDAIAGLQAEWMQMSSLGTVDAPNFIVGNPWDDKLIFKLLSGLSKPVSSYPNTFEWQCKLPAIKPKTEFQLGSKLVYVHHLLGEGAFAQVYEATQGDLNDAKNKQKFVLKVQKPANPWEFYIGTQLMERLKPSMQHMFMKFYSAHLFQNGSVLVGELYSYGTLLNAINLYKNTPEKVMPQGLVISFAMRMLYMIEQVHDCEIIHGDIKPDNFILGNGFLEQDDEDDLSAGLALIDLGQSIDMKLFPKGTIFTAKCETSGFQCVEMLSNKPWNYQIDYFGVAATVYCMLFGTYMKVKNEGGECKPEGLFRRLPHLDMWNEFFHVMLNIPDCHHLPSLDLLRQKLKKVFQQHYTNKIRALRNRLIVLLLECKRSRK

ERK5 = ERK5 (Homo sapiens (Human), UniProt Q13164); conditions: read-out: Percent Control at 100 nM Compound Concentration
[1] = molecular target: ABL1(M351T)-phosphorylated (Homo sapiens (Human), UniProt P00519, M351T); conditions: read-out: Percent Control at 100 nM Compound Concentration
PIK4CB = PIK4CB (Homo sapiens (Human), UniProt Q9UBF8); conditions: read-out: Percent Control at 100 nM Compound Concentration
DYRK1B = DYRK1B (Homo sapiens (Human), UniProt Q9Y463); conditions: read-out: Percent Control at 100 nM Compound Concentration
[2] = molecular target: JAK1(JH2domain-pseudokinase) (Homo sapiens (Human), UniProt P23458); conditions: read-out: Percent Control at 100 nM Compound Concentration
KIT-autoinhibited = KIT-autoinhibited (Homo sapiens (Human), UniProt P10721); conditions: read-out: Percent Control at 100 nM Compound Concentration
KIT-autoinhibited, sequence (P10721 544-976 limits assumed): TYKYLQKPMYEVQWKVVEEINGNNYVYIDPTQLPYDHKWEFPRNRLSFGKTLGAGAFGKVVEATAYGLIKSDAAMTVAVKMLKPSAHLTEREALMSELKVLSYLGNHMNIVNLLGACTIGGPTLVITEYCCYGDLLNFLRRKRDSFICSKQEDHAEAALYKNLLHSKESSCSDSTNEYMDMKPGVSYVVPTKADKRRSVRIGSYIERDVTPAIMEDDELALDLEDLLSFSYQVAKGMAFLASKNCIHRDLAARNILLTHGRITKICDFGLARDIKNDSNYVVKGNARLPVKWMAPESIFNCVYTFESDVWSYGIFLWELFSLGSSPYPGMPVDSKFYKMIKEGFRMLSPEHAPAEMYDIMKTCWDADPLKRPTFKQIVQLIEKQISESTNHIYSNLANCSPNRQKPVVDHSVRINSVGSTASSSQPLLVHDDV

DAPK3 = DAPK3 (Homo sapiens (Human), UniProt O43293); conditions: read-out: Percent Control at 100 nM Compound Concentration
PIK3CB = PIK3CB (Homo sapiens (Human), UniProt P42338); conditions: read-out: Percent Control at 100 nM Compound Concentration
FLT3(ITD) = test system: FLT3(ITD); design: species or system human
STK33 = STK33 (Homo sapiens (Human), UniProt Q9BYT3); conditions: read-out: Percent Control at 100 nM Compound Concentration
TLK1 = TLK1 (Homo sapiens (Human), UniProt Q9UKI8); conditions: read-out: Percent Control at 100 nM Compound Concentration
DMPK2 = DMPK2 (Homo sapiens (Human), UniProt Q6DT37); conditions: read-out: Percent Control at 100 nM Compound Concentration
FER = FER (Homo sapiens (Human), UniProt P16591); conditions: read-out: Percent Control at 100 nM Compound Concentration
PRKX = PRKX (Homo sapiens (Human), UniProt P51817); conditions: read-out: Percent Control at 100 nM Compound Concentration
PRKX, sequence (P51817 whole entry): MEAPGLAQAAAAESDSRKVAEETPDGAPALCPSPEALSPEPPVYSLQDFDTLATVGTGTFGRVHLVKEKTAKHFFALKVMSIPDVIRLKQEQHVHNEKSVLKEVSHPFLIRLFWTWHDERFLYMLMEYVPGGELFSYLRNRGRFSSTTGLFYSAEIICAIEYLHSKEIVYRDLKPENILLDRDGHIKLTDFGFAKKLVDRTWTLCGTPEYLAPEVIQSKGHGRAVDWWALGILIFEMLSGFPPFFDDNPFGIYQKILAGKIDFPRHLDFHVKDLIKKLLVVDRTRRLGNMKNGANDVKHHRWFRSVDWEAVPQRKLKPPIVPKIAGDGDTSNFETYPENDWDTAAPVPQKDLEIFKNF

ERK1 = ERK1 (Homo sapiens (Human), UniProt P27361); conditions: read-out: Percent Control at 100 nM Compound Concentration
ERK1, sequence (P27361 whole entry): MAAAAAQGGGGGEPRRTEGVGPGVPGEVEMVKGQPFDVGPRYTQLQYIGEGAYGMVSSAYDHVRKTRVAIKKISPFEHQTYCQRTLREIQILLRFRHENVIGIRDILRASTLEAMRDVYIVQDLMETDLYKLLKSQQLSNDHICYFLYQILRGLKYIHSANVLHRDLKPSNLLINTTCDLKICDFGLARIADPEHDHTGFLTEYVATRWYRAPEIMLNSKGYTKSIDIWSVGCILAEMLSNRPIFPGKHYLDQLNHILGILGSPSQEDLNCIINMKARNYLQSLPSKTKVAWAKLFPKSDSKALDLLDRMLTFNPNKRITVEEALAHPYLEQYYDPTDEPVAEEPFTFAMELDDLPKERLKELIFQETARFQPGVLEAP

FGR = FGR (Homo sapiens (Human), UniProt P09769); conditions: read-out: Percent Control at 100 nM Compound Concentration
FGR, sequence (P09769 whole entry): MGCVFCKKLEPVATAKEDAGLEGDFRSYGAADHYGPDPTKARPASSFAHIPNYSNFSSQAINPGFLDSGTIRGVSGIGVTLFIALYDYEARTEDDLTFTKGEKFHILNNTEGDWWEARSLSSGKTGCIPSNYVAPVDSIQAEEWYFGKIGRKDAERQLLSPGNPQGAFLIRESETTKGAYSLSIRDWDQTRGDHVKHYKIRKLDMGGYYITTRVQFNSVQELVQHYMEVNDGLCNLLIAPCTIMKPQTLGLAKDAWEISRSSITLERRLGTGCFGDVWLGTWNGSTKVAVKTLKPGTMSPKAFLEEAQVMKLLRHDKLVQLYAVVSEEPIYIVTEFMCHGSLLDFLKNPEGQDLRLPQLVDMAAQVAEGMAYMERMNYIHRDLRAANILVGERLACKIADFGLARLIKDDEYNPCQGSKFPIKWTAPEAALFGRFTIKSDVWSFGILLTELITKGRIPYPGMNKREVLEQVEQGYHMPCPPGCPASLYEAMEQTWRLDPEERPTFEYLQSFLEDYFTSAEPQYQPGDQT

ACVR2B = ACVR2B (Homo sapiens (Human), UniProt Q13705); conditions: read-out: Percent Control at 100 nM Compound Concentration
ACVR2B, sequence (Q13705 19-512): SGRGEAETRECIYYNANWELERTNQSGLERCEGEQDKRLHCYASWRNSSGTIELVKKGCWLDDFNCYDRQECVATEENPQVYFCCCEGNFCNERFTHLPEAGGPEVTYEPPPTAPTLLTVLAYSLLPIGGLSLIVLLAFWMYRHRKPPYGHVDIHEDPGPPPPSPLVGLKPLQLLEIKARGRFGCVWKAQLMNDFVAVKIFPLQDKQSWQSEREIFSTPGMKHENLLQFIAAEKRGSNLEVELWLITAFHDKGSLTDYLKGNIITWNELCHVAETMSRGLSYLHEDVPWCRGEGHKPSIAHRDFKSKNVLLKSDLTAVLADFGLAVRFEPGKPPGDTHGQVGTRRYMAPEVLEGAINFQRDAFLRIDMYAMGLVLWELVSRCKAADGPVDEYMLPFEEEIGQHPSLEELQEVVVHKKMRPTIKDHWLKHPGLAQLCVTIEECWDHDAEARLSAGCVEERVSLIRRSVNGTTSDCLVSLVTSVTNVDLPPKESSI

BRAF(V600E) = BRAF(V600E) (Homo sapiens (Human), UniProt P15056, V600E); conditions: read-out: Percent Control at 100 nM Compound Concentration

AXL, sequence (P30530 26-894): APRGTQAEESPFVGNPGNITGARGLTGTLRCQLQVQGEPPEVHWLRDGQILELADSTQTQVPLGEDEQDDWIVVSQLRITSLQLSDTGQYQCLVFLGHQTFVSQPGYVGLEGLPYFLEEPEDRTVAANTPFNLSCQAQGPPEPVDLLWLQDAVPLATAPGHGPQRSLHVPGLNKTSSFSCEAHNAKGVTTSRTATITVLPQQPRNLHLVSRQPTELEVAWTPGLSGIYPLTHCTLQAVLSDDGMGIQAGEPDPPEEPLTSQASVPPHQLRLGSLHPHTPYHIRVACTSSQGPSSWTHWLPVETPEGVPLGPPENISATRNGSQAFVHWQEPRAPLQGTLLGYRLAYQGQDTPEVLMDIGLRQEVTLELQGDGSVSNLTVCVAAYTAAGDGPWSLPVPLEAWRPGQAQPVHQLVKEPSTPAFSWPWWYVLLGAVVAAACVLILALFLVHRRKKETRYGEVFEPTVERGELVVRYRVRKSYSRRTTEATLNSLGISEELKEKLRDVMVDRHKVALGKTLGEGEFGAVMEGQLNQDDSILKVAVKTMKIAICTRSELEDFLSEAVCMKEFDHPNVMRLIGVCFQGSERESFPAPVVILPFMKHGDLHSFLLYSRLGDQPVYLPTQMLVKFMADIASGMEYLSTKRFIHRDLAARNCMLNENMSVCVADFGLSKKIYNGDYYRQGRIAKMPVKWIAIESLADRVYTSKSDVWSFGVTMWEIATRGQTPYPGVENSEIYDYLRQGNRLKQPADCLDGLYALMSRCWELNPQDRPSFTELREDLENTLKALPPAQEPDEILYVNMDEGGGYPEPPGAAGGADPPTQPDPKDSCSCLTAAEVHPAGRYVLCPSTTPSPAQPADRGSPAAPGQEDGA

Q: How did the remaining activity at 0.1 µM (AXL; AXL) turn out when `CN(C[C@@H](O)Cc1ccccc1)C(=O)c1cncc(C#Cc2cnn(C(F)F)c2)c1` [Example 2, (S)-5-((1-(difluoromethyl)-1H-pyrazol-4-yl)ethynyl)-N-(2-hydroxy-3-phenylpropyl)-N-methylnicotinamide] was run?
A: Its remaining activity at 0.1 µM is 100%.

Q: And the remaining activity at 0.1 µM (PAK4; PAK4)?
A: The remaining activity at 0.1 µM was 98%.

Q: What about the remaining activity at 0.1 µM (MAP4K4; MAP4K4) of the same compound?
A: Its remaining activity at 0.1 µM is 92%.

Q: What about the remaining activity at 0.1 µM (FLT3(D835V); FLT3(D835V)) of the same compound?
A: The remaining activity at 0.1 µM was 100%.

Q: What about the remaining activity at 0.1 µM (EGFR(L747-T751del,Sins); EGFR(L747-T751del,Sins)) of the same compound?
A: Its remaining activity at 0.1 µM is 100%.

Q: And the remaining activity at 0.1 µM (CAMK1B; CAMK1B)?
A: Its remaining activity at 0.1 µM is 82%.

Q: And the remaining activity at 0.1 µM (PIK3CA(C420R); PIK3CA(C420R))?
A: Its remaining activity at 0.1 µM is 83%.

Q: What about the remaining activity at 0.1 µM (SIK; SIK) of the same compound?
A: Its remaining activity at 0.1 µM is 100%.

Q: And the remaining activity at 0.1 µM (MEK1; MEK1)?
A: Its remaining activity at 0.1 µM is 98%.

Q: And the remaining activity at 0.1 µM (BUB1; BUB1)?
A: Its remaining activity at 0.1 µM is 93%.

Q: And the remaining activity at 0.1 µM (ERK5; ERK5)?
A: The remaining activity at 0.1 µM was 100%.

Q: And the remaining activity at 0.1 µM ([1]; ABL1(M351T)-phosphorylated)?
A: Its remaining activity at 0.1 µM is 86%.

Q: And the remaining activity at 0.1 µM (PIK4CB; PIK4CB)?
A: The remaining activity at 0.1 µM was 100%.

Q: And the remaining activity at 0.1 µM (DYRK1B; DYRK1B)?
A: Its remaining activity at 0.1 µM is 97%.

Q: And the remaining activity at 0.1 µM ([2]; JAK1(JH2domain-pseudokinase))?
A: Its remaining activity at 0.1 µM is 93%.

Q: And the remaining activity at 0.1 µM (KIT-autoinhibited; KIT-autoinhibited)?
A: The remaining activity at 0.1 µM was 94%.

Q: What about the remaining activity at 0.1 µM (DAPK3; DAPK3) of the same compound?
A: Its remaining activity at 0.1 µM is 100%.

Q: And the remaining activity at 0.1 µM (PIK3CB; PIK3CB)?
A: The remaining activity at 0.1 µM was 100%.

Q: What about the “Percent Control at 100 nM Compound Concentration” value (FLT3(ITD)) of the same compound?
A: The value was 100%.

Q: What about the remaining activity at 0.1 µM (STK33; STK33) of the same compound?
A: The remaining activity at 0.1 µM was 88%.

Q: What about the remaining activity at 0.1 µM (TLK1; TLK1) of the same compound?
A: The remaining activity at 0.1 µM was 100%.

Q: And the remaining activity at 0.1 µM (DMPK2; DMPK2)?
A: The remaining activity at 0.1 µM was 97%.

Q: What about the remaining activity at 0.1 µM (FER; FER) of the same compound?
A: The remaining activity at 0.1 µM was 100%.

Q: And the remaining activity at 0.1 µM (PRKX; PRKX)?
A: The remaining activity at 0.1 µM was 100%.

Q: And the remaining activity at 0.1 µM (ERK1; ERK1)?
A: The remaining activity at 0.1 µM was 97%.

Q: And the remaining activity at 0.1 µM (FGR; FGR)?
A: Its remaining activity at 0.1 µM is 100%.

Q: And the remaining activity at 0.1 µM (ACVR2B; ACVR2B)?
A: Its remaining activity at 0.1 µM is 91%.

Q: What about the remaining activity at 0.1 µM (BRAF(V600E); BRAF(V600E)) of the same compound?
A: The remaining activity at 0.1 µM was 97%.

Q: Which results are given for `CN(C[C@H](Cc1ccccc1)OP(=O)(O)O)C(=O)c1cncc(C#Cc2cnn(C(F)F)c2)c1` [Example 19, (S)-1-(5-((1-(difluoromethyl)-1H-pyrazol-4-yl)ethynyl)-N-methylnicotinamido)-3-phenylpropan-2-yl dihydrogen phosphate]?
A: remaining activity at 0.1 µM (AXL): 96%; remaining activity at 0.1 µM (PAK4): 98%; remaining activity at 0.1 µM (MAP4K4): 95%; remaining activity at 0.1 µM (FLT3(D835V)): 100%; remaining activity at 0.1 µM (EGFR(L747-T751del,Sins)): 79%; remaining activity at 0.1 µM (CAMK1B): 83%; remaining activity at 0.1 µM (PIK3CA(C420R)): 86%; remaining activity at 0.1 µM (SIK): 100%; remaining activity at 0.1 µM (MEK1): 99%; remaining activity at 0.1 µM (BUB1): 85%; remaining activity at 0.1 µM (ERK5): 100%; remaining activity at 0.1 µM [1]: 97%; remaining activity at 0.1 µM (PIK4CB): 98%; remaining activity at 0.1 µM (DYRK1B): 79%; remaining activity at 0.1 µM [2]: 86%; remaining activity at 0.1 µM (KIT-autoinhibited): 94%; remaining activity at 0.1 µM (DAPK3): 97%; remaining activity at 0.1 µM (PIK3CB): 95%; Percent Control at 100 nM Compound Concentration (FLT3(ITD)): 100%; remaining activity at 0.1 µM (STK33): 100%; remaining activity at 0.1 µM (TLK1): 100%; remaining activity at 0.1 µM (DMPK2): 96%; remaining activity at 0.1 µM (FER): 96%; remaining activity at 0.1 µM (PRKX): 100%; remaining activity at 0.1 µM (ERK1): 95%; remaining activity at 0.1 µM (FGR): 99%; remaining activity at 0.1 µM (ACVR2B): 99%; remaining activity at 0.1 µM (BRAF(V600E)): 97%
